# Literature values in patent US8980299B2, “Method of making a vascular closure device” (Cordis Corporation, priority 2007, dated 2015).
# Test system: S. aureus
# Details: suitable growth medium; Bhargava et al., Am J Infect Control, June 1996
smiles,measurement,value
"Oc1cc(Cl)ccc1Oc1ccc(Cl)cc1Cl [2,4,4′-trichloro-2′hydroxydiphenyl ether, 2,4,4′-trichloro-2′-hydroxydiphenyl ether]",minimum inhibitory concentration (MIC) against S. aureus,0.01 ppm
